Experimental data as given in patent US10308639B2, “Phosphatidylinositol 3-kinase inhibitors” (Gilead Sciences, Inc., priority 2014, dated 2019).

Experiments:
Assay type in all cases: biochemical
PI3Kβ = biological target: T1, PI3Kβ (Homo sapiens, UniProt P42338); assay: TR-FRET enzymatic activity assay, PI3Kβ; settings: Table 2a; same assay
T1 construct: made in house

PI3Kδ = biological target: T2, PI3Kδ (Homo sapiens, UniProt O00329); assay: TR-FRET enzymatic activity assay, PI3Kδ; settings: Table 2a; same assay
T2 construct: made in house

PI3Kγ = biological target: T3, PI3Kγ (Homo sapiens, UniProt P48736); assay: TR-FRET enzymatic activity assay, PI3Kγ; settings: Table 2a; same assay; read-out: PI3Kγ IC50
T3 construct: made in house
Procedure, shortened: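 Compounds were profiled per isoform in a biochemical kinase reaction, with activity detected by time-resolved fluorescence resonance energy transfer.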

T2 sequence (O00329 whole entry): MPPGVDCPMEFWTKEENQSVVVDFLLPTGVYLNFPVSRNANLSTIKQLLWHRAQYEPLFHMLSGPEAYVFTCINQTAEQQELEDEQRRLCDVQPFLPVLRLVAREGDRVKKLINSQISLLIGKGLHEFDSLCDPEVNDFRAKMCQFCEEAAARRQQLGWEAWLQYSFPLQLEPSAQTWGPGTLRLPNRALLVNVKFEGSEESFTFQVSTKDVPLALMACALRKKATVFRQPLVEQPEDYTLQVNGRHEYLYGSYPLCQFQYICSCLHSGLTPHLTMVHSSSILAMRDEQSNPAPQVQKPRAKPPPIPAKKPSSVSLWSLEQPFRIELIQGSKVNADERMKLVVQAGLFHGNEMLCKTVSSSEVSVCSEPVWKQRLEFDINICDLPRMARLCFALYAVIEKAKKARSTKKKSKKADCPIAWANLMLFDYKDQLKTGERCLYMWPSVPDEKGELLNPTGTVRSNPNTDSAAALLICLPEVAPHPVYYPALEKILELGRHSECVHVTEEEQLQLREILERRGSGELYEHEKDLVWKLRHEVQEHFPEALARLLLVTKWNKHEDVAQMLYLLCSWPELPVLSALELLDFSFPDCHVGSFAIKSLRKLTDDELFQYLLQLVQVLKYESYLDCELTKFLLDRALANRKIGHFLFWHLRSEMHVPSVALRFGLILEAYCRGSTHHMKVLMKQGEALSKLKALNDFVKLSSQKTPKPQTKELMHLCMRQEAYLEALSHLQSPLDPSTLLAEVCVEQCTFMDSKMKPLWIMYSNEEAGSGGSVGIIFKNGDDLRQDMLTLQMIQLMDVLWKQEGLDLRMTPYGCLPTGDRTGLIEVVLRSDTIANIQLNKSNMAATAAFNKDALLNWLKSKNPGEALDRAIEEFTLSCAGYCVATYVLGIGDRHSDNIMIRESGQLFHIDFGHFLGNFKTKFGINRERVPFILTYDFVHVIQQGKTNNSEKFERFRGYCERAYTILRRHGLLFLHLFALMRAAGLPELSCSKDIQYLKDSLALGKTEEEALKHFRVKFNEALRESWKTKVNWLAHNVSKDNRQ
T2 sequence (P27986 whole entry partner): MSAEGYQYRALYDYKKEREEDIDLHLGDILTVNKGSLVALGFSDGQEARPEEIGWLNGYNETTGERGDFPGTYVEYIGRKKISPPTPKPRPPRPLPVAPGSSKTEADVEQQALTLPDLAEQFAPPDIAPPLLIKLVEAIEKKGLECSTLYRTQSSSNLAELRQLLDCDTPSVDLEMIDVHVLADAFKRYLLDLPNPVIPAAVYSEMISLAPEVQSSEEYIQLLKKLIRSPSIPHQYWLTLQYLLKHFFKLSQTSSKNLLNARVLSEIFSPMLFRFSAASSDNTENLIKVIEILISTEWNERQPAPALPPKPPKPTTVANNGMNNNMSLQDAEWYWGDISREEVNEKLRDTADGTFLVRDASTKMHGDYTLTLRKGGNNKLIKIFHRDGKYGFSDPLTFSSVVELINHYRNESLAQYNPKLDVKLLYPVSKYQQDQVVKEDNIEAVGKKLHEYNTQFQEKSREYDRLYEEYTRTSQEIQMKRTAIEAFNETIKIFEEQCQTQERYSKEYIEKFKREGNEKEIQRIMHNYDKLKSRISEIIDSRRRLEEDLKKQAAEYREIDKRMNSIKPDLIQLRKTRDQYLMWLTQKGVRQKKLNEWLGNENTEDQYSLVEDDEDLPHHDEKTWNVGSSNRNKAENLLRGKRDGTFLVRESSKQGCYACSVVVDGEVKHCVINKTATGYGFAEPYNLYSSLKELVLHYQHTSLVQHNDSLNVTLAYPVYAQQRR
T3 sequence (P48736 whole entry): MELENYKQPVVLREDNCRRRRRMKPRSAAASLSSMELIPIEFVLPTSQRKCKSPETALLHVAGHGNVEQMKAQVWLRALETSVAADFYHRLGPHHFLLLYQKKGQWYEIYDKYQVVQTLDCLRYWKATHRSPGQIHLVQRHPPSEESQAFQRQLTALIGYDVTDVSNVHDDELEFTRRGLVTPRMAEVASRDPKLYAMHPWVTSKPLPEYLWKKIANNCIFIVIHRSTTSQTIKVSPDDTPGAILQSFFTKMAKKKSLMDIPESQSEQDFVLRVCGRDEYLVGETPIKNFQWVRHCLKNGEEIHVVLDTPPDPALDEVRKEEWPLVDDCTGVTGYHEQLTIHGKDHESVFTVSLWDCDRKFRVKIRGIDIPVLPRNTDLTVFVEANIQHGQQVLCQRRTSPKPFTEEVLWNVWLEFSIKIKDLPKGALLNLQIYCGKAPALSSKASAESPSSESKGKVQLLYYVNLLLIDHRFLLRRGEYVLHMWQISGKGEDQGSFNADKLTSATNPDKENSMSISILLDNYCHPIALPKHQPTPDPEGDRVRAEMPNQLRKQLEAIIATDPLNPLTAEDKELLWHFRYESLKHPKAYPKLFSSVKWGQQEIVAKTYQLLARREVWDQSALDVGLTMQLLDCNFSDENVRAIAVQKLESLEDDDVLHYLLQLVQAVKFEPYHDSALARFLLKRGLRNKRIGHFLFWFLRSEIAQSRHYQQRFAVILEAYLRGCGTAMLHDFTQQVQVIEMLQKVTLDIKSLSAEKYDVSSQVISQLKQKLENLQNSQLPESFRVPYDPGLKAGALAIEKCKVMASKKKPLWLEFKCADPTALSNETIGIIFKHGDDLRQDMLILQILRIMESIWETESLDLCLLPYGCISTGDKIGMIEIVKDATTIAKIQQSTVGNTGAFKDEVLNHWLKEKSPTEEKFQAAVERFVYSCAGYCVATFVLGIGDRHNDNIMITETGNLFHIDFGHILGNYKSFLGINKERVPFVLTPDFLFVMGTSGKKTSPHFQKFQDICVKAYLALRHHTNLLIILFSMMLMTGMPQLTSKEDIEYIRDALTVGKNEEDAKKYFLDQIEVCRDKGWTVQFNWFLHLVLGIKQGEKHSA
T1 sequence (P42338 whole entry): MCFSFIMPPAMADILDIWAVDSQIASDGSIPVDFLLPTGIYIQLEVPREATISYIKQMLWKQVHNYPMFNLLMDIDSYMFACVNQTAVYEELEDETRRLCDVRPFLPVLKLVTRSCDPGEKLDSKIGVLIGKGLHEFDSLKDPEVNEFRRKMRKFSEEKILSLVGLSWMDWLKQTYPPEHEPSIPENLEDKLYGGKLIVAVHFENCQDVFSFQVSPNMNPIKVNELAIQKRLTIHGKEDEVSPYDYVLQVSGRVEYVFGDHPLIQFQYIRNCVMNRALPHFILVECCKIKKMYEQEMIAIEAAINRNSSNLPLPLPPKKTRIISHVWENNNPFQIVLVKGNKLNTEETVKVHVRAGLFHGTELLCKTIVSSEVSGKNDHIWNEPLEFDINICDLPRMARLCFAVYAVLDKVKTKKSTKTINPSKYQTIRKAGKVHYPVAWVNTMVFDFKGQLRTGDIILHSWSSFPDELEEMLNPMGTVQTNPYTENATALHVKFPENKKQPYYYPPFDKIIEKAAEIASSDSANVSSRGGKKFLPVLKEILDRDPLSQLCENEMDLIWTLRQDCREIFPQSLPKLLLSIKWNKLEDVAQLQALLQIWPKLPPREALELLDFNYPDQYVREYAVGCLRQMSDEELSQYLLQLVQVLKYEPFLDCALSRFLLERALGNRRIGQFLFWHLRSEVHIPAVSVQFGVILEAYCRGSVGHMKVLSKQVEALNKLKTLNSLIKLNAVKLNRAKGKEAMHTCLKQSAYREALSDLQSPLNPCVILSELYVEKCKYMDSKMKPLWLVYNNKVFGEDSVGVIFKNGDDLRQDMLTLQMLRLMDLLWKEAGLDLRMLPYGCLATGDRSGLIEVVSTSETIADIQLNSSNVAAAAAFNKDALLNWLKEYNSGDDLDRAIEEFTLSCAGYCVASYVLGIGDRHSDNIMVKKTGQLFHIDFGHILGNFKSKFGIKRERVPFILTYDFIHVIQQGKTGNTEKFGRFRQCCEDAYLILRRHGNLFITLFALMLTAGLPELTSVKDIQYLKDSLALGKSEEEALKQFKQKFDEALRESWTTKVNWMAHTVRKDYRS
T1 sequence (P27986 whole entry partner): as the sequence (P27986 whole entry partner) above

**Q.** For C[C@H](Nc1nc(N)nc(N)c1C#N)c1nc2cccc(C(F)F)c2c(=O)n1-c1cc[nH]n1 [Compound 211, (S)-2,4-diamino-6-((1-(5-(difluoromethyl)-4-oxo-3-(1H-pyrazol-3-yl)-3,4-dihydroquinazolin-2-yl)ethyl)amino)pyrimidine-5-carbonitrile], which IC50 (PI3Kβ) is on record?
**A.** The IC50 was 0.6 nM.

**Q.** And the IC50 (PI3Kδ)?
**A.** The IC50 was 0.3 nM.

**Q.** What about the IC50 (PI3Kγ) of the same molecule?
**A.** The IC50 was 82 nM.

**Q.** Which results are given for C[C@H](Nc1nc(N)nc(N)c1C#N)c1nc2cccc(C(F)F)c2c(=O)n1-c1cn[nH]c1 [Compound 212, (S)-2,4-diamino-6-((1-(5-(difluoromethyl)-4-oxo-3-(1H-pyrazol-4-yl)-3,4-dihydroquinazolin-2-yl)ethyl)amino)pyrimidine-5-carbonitrile]?
**A.** IC50 (PI3Kβ): 1 nM; IC50 (PI3Kδ): 0.7 nM; IC50 (PI3Kγ): 34 nM

**Q.** With C[C@H](Nc1nc(N)nc(N)c1Cl)c1nc2cccc(C(F)F)c2c(=O)n1-c1cn[nH]c1 [Compound 213, (S)-2-(1-((2,6-diamino-5-chloropyrimidin-4-yl)amino)ethyl)-5-(difluoromethyl)-3-(1H-pyrazol-4-yl)quinazolin-4(3H)-one] as the molecule, how does the IC50 (PI3Kβ) read?
**A.** The IC50 was 36 nM.

**Q.** And the IC50 (PI3Kδ)?
**A.** The IC50 was 5 nM.

**Q.** What about the IC50 (PI3Kγ) of the same molecule?
**A.** The IC50 was 520 nM.

**Q.** Which IC50 (PI3Kβ) does the source give for N#Cc1c(N)nc(N)nc1N[C@H](c1nc2cccc(C(F)F)c2c(=O)n1-c1cc[nH]n1)C1CC1 [Compound 214, (S)-2,4-diamino-6-((cyclopropyl(5-(difluoromethyl)-4-oxo-3-(1H-pyrazol-3-yl)-3,4-dihydroquinazolin-2-yl)methyl)amino)pyrimidine-5-carbonitrile] here?
**A.** The IC50 was 2 nM.

**Q.** What about the IC50 (PI3Kδ) of the same molecule?
**A.** The IC50 was 0.6 nM.

**Q.** And the IC50 (PI3Kγ)?
**A.** The IC50 was 240 nM.

**Q.** With Nc1nc(N)c(Cl)c(N[C@H](c2nc3cccc(C(F)F)c3c(=O)n2-c2cc[nH]n2)C2CC2)n1 [Compound 215, (S)-2-(cyclopropyl((2,6-diamino-5-chloropyrimidin-4-yl)amino)methyl)-5-(difluoromethyl)-3-(1H-pyrazol-3-yl)quinazolin-4(3H)-one] as the molecule, how does the IC50 (PI3Kβ) read?
**A.** The IC50 was 10 nM.

**Q.** What about the IC50 (PI3Kδ) of the same molecule?
**A.** The IC50 was 6 nM.

**Q.** And the IC50 (PI3Kγ)?
**A.** The IC50 was 2700 nM.

**Q.** For Cc1n[nH]cc1-n1c([C@H](C)Nc2nc(N)nc(N)c2C#N)nc2cccc(Cl)c2c1=O [Compound 216, (S)-2,4-diamino-6-((1-(5-chloro-3-(3-methyl-1H-pyrazol-4-yl)-4-oxo-3,4-dihydroquinazolin-2-yl)ethyl)amino)pyrimidine-5-carbonitrile], which IC50 (PI3Kβ) is on record?
**A.** Its IC50 is 3 nM.

**Q.** And the IC50 (PI3Kδ)?
**A.** The IC50 was 0.4 nM.

**Q.** What about the IC50 (PI3Kγ) of the same molecule?
**A.** Its IC50 is 40 nM.

**Q.** With C[C@H](Nc1nc(N)nc(N)c1C#N)c1nc2c(Cl)ccc(Cl)c2c(=O)n1-c1cn[nH]c1 [Compound 217, (S)-2,4-diamino-6-((1-(5,8-dichloro-4-oxo-3-(1H-pyrazol-4-yl)-3,4-dihydroquinazolin-2-yl)ethyl)amino)pyrimidine-5-carbonitrile] as the molecule, how does the IC50 (PI3Kβ) read?
**A.** Its IC50 is 0.6 nM.

**Q.** What about the IC50 (PI3Kδ) of the same molecule?
**A.** The IC50 was 0.2 nM.

**Q.** And the IC50 (PI3Kγ)?
**A.** Its IC50 is 83 nM.

**Q.** What does the source list for Cc1n[nH]cc1-n1c([C@H](C)Nc2nc(N)nc(N)c2Cl)nc2c(Cl)ccc(Cl)c2c1=O [Compound 218, (S)-5,8-dichloro-2-(1-((2,6-diamino-5-chloropyrimidin-4-yl)amino)ethyl)-3-(3-methyl-1H-pyrazol-4-yl)quinazolin-4(3H)-one]?
**A.** IC50 (PI3Kβ): 210 nM; IC50 (PI3Kδ): 20 nM; IC50 (PI3Kγ): > 10000 nM

**Q.** Which IC50 (PI3Kβ) does the source give for Cc1n[nH]cc1-n1c([C@H](C)Nc2nc(N)nc(N)c2C#N)nc2c(Cl)ccc(Cl)c2c1=O [Compound 219, (S)-2,4-diamino-6-((1-(5,8-dichloro-3-(3-methyl-1H-pyrazol-4-yl)-4-oxo-3,4-dihydroquinazolin-2-yl)ethyl)amino)pyrimidine-5-carbonitrile] here?
**A.** Its IC50 is 6 nM.

**Q.** What about the IC50 (PI3Kδ) of the same molecule?
**A.** The IC50 was 1 nM.

**Q.** What about the IC50 (PI3Kγ) of the same molecule?
**A.** Its IC50 is 420 nM.

**Q.** What does the source list for Cc1n[nH]cc1-n1c([C@@H](Nc2nc(N)nc(N)c2C#N)C2CC2)nc2c(Cl)cc(F)cc2c1=O [Compound 220, (S)-2,4-diamino-6-(((8-chloro-6-fluoro-3-(3-methyl-1H-pyrazol-4-yl)-4-oxo-3,4-dihydroquinazolin-2-yl)(cyclopropyl)methyl)amino)pyrimidine-5-carbonitrile]?
**A.** IC50 (PI3Kβ): 42 nM; IC50 (PI3Kδ): 7 nM; IC50 (PI3Kγ): 2200 nM

**Q.** What does the source list for Cc1n[nH]cc1-n1c([C@@H](Nc2nc(N)nc(N)c2Cl)C2CC2)nc2c(Cl)cc(F)cc2c1=O [Compound 221, (S)-8-chloro-2-(cyclopropyl((2,6-diamino-5-chloropyrimidin-4-yl)amino)methyl)-6-fluoro-3-(3-methyl-1H-pyrazol-4-yl)quinazolin-4(3H)-one]?
**A.** IC50 (PI3Kβ): 1100 nM; IC50 (PI3Kδ): 180 nM; IC50 (PI3Kγ): > 10000 nM

**Q.** With Cc1ccc(Cl)c2nc([C@H](C)Nc3nc(N)nc(N)c3C#N)n(-c3cc[nH]n3)c(=O)c12 [Compound 222, (S)-2,4-diamino-6-((1-(8-chloro-5-methyl-4-oxo-3-(1H-pyrazol-3-yl)-3,4-dihydroquinazolin-2-yl)ethyl)amino)pyrimidine-5-carbonitrile] as the molecule, how does the IC50 (PI3Kβ) read?
**A.** The IC50 was 0.6 nM.

**Q.** And the IC50 (PI3Kδ)?
**A.** Its IC50 is 0.2 nM.

**Q.** And the IC50 (PI3Kγ)?
**A.** The IC50 was 360 nM.

**Q.** With Cc1ccc(Cl)c2nc([C@H](C)Nc3nc(N)nc(N)c3Cl)n(-c3cc[nH]n3)c(=O)c12 [Compound 223, (S)-8-chloro-2-(1-((2,6-diamino-5-chloropyrimidin-4-yl)amino)ethyl)-5-methyl-3-(1H-pyrazol-3-yl)quinazolin-4(3H)-one] as the molecule, how does the IC50 (PI3Kβ) read?
**A.** Its IC50 is 3 nM.

**Q.** What about the IC50 (PI3Kδ) of the same molecule?
**A.** Its IC50 is 3 nM.

**Q.** What about the IC50 (PI3Kγ) of the same molecule?
**A.** The IC50 was 9400 nM.

**Q.** How did the IC50 (PI3Kβ) turn out when Cc1ccc(Cl)c2nc([C@H](C)Nc3nc(N)nc(C(F)F)c3C#N)n(-c3cc[nH]n3)c(=O)c12 [Compound 224, (S)-2-amino-4-((1-(8-chloro-5-methyl-4-oxo-3-(1H-pyrazol-3-yl)-3,4-dihydroquinazolin-2-yl)ethyl)amino)-6-(difluoromethyl)pyrimidine-5-carbonitrile] was run?
**A.** Its IC50 is 5 nM.

**Q.** What about the IC50 (PI3Kδ) of the same molecule?
**A.** Its IC50 is 2 nM.

**Q.** And the IC50 (PI3Kγ)?
**A.** The IC50 was 2100 nM.

**Q.** With C[C@H](Nc1nc(N)nc(C(F)F)c1Cl)c1nc2cccc(Cl)c2c(=O)n1-c1cc[nH]n1 [Compound 225, (S)-2-(1-((2-amino-5-chloro-6-(difluoromethyl)pyrimidin-4-yl)amino)ethyl)-5-chloro-3-(1H-pyrazol-3-yl)quinazolin-4(3H)-one] as the molecule, how does the IC50 (PI3Kβ) read?
**A.** Its IC50 is 537 nM.

**Q.** What about the IC50 (PI3Kδ) of the same molecule?
**A.** The IC50 was 300 nM.

**Q.** And the IC50 (PI3Kγ)?
**A.** The IC50 was over 10000 nM.

**Q.** Which IC50 (PI3Kβ) does the source give for C[C@H](Nc1nc(N)nc(C(F)F)c1Cl)c1nc2c(Cl)cc(F)cc2c(=O)n1-c1cc[nH]n1 [Compound 226, (S)-2-(1-((2-amino-5-chloro-6-(difluoromethyl)pyrimidin-4-yl)amino)ethyl)-8-chloro-6-fluoro-3-(1H-pyrazol-3-yl)quinazolin-4(3H)-one] here?
**A.** Its IC50 is 628 nM.

**Q.** What about the IC50 (PI3Kδ) of the same molecule?
**A.** Its IC50 is 270 nM.

**Q.** And the IC50 (PI3Kγ)?
**A.** Its IC50 is over 10000 nM.

**Q.** What does the source list for C[C@H](Nc1nc(N)nc(N)c1Cl)c1nc2c(Cl)ccc(C(F)F)c2c(=O)n1-c1cc[nH]n1 [Compound 227, (S)-8-chloro-2-(1-((2,6-diamino-5-chloropyrimidin-4-yl)amino)ethyl)-5-(difluoromethyl)-3-(1H-pyrazol-3-yl)quinazolin-4(3H)-one]?
**A.** IC50 (PI3Kβ): 9 nM; IC50 (PI3Kδ): 8 nM; IC50 (PI3Kγ): 5000 nM

**Q.** C[C@H](Nc1nc(N)nc(N)c1C#N)c1nc2c(Cl)ccc(C(F)F)c2c(=O)n1-c1cc[nH]n1 [Compound 228, (S)-2,4-diamino-6-((1-(8-chloro-5-(difluoromethyl)-4-oxo-3-(1H-pyrazol-3-yl)-3,4-dihydroquinazolin-2-yl)ethyl)amino)pyrimidine-5-carbonitrile] was tested. Which IC50 (PI3Kβ) did it give?
**A.** Its IC50 is 1 nM.

**Q.** And the IC50 (PI3Kδ)?
**A.** The IC50 was 0.6 nM.

**Q.** And the IC50 (PI3Kγ)?
**A.** Its IC50 is 870 nM.
